Reference: patent publication US20070167353A1, “PRODRUG COMPOSITION” (priority 2003, published 2007)

Experiments:
vaccinia virus = test: microbe, parasite or virus in culture; format: cell-based; details: for IC50: HFF cells, 3 days, read-out: Vaccinia Plaque Reduction (IC50)
[1] = molecular target: T1, biphenyl hydrolase-like enzyme (BPHL) (Homo sapiens, UniProt Q86WA6); format: biochemical
T1 sequence (Q86WA6 38-291): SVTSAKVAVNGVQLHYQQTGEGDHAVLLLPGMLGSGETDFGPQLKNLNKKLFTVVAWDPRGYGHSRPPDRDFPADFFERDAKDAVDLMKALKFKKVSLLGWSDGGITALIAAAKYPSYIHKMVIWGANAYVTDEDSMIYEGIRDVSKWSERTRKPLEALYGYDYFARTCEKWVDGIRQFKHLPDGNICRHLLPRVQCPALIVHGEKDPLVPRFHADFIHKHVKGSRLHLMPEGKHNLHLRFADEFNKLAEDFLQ

HPEPT1 [2] = molecular target: T2, HPEPT1 (Homo sapiens, UniProt P46059); test: Inhibition of radiolabelled Gly-Sar uptake in DC5 cells overexpressing HPEPT1; format: cell-based; design: expressed in transfected cells; host or cells: HeLa cells overexpressing hPEPT1 (called 'HPEPT1 infected cells'); details: inhibition of Gly-Sar uptake, DC5 cells overexpressing HPEPT1, 10 min, 37° C.; read-out: DC5 IC50
T2 sequence (P46059 1-708): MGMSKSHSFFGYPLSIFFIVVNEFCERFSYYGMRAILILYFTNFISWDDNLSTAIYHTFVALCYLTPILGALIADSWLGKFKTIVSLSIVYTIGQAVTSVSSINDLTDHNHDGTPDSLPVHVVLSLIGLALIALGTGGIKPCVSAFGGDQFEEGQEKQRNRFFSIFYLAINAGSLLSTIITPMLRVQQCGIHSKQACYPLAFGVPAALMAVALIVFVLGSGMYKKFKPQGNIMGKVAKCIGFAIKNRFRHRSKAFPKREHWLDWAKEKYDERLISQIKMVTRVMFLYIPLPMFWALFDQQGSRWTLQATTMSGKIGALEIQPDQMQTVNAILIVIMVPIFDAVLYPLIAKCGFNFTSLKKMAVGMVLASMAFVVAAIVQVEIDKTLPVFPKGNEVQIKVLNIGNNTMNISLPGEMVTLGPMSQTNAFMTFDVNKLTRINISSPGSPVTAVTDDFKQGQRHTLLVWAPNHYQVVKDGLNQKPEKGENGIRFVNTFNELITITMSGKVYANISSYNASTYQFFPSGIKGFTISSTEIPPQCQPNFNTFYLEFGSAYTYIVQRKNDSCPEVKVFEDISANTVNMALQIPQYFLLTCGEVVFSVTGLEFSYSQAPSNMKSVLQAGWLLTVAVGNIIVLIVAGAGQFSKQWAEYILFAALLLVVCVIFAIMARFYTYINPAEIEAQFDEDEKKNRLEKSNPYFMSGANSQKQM
Method: Amino acid prodrugs are tested for their interaction with the dipeptide transporter, HPEPT1, using tissue culture cells that are engineered to overexpress HPEPT1. In this example, the cells that overexpress HPEPT1, termed DC5, are a human meduloblastoma cell line that is stably transfected with a eukaryotic expression vector encoding HPEPT1. […] DC5 cells are plated at a density of 12,000 cells/well in 96-well tissue culture plates and allowed to grow for 2 days. The cells are washed once with 200 microliters of uptake buffer and aspirated. The plates are cooled to 4° C. and 25 ul of uptake buffer containing 125 nanomoles Gly-Sar (at a specific activity of 1 microcurie/micromole) is added. The uptake buffer also contains the prodrugs to be tested at concentrations ranging from 10 micromolar to 20 millimolar. The assay is initiated by placing the plate in a shaking water bath at 37° C. and is terminated after 10 min by rapid washing with multiple changes of 4° C. phosphate buffered saline (PBS). The radioactive Gly-Sar peptide that is transported by the hpept1 is extracted from the cell layer with 200 ul of a one to one mixture of methanol and water and is counted in 4 ml of CytoScint ES™ scintillation cocktail (ICN). The data are plotted as % Gly-Sar uptake of control (no competitive substrate) versus the competitive substrate concentration. […] Typically, values that are below 10 mM indicate that the drug interacts with transporter.

HPEPT1 [3] = molecular target: T2, HPEPT1; details: for Uptake (hPepT1): HeLa cells overexpressing HPEPT1, 50 micromolar, pH 6.0, 45 minutes; for hPepT1/Control: ratio of uptake in hPepT1 cells versus control cells
[4] = Intestinal absorption after direct duodenal injection in anesthetized rats, plasma by LC/MS/MS; details: for plasma Ara A levels after dosing (in words) / prodrug absorption / prodrug concentrations in systemic plasma (in words): rat, duodenal injection
Method: The systemic plasma profiles of the prodrug, Ara A, and its main metabolite, Ara H are then monitored by removing plasma from a jugular vein cannula over a 4 hour period and assaying by LC/MS/MS assay.
Animals were dosed with Ara A at a level of 1.5 mg/rat via direct duodenal injection into anesthetized rats (n=2 per compound). Plasma samples were taken from the jugular vein at 0, 1, 2, and 4 hours from the jugular vein and were assayed for Ara A (▪), and Ara H (♦) by LC/MS/MS.
Animals were dosed with 5′-O-L isoleucyl Ara A prodrug at a level of 2.7 mg/rat via direct duodenal injection into anesthetized rats (n=3 per compound). Plasma samples were taken from the jugular vein at 0, 0.5, 1, 2, and 4 hours from the jugular vein and were assayed for prodrug (□), Ara A (▪), and Ara H (♦) by LC/MS/MS.
(§1) FIG. 6 is a graph showing mean plasma profiles of Ara A, Ara H, and 5′-O-D Isoleucyl Ara A after administration of 5′-O-D Isoleucyl Ara A into the duodenum of a rat. Animals were dosed with 5′-O-D Isoleucyl Ara A prodrug at a level of 2.7 mg/rat via direct duodenal injection into anesthetized rats (n=2). Plasma samples were taken from the jugular vein at 0, 0.5, 1, 2, and 4 hours from the jugular vein and were assayed for prodrug (□), Ara A (▪), and Ara H (♦) by LC/MS/MS.
as §1, with “7” for “6”, “5′-O-L Valyl” for “5′-O-D Isoleucyl”, “3” for “2.7”
as §1, with “FIG. 8” for “FIG. 6”, “5′-O-D Valyl” for “5′-O-D Isoleucyl”, “of 3.0” for “of 2.7”, “rats (n=3).” for “rats (n=2).”, “and ara” for “and Ara”
as §1, with “9” for “6”, “5′-O-Glycyl” for “5′-O-D Isoleucyl”, “3.0” for “2.7”

KB cell = KB cell cytotoxicity; details: read-out: KB cell cytotoxicity (IC50)
[5] = molecular target: T3, human dipeptide transporter, hPept1 (Homo sapiens, UniProt P46059)
T3 sequence (P46059 1-708): T2 sequence (P46059 1-708)

Row | SMILES | % of Control (VACV) [1] [%] | IC50 (HPEPT1 [2]) [µM] | Uptake (hPepT1) (HPEPT1 [3]) [nmole/mg/45 min] | hPepT1/Control (HPEPT1 [3]) | other results
1 | OC[C@H]1O[C@@H](n2cnc3c2N=CNC[C@H]3O)C[C@@H]1O [2′-deoxycoformycin, reference compound] | – | – | – | – | effect on virus replication (vaccinia virus; 2′-deoxycoformycin alone at 1 micromolar): no effect on virus replication
2 | NC(Cc1ccccc1)C(=O)O[C@H]1C[C@H](n2cc(F)c(=O)[nH]c2=O)O[C@@H]1CO (stereo partly shown) [3′-O-phenylalanyl-Floxuridine] | 24.4 | 3480 | 0.83 ± 0.19 | 2.56 | –
3 | CC[C@@H](C)[C@@H](N)C(=O)OC[C@H]1O[C@@H](n2cnc3c(N)ncnc32)[C@@H](O)[C@@H]1O [5′-O-D-isoleucyl Ara A] | – | – | – | – | plasma Ara A levels after dosing (in words) [4]: increased levels of plasma Ara A; IC50 (vaccinia virus): 3 µM; IC50 (KB cell): > 100 µM
4 | NCC(=O)OC[C@H]1O[C@@H](n2cnc3c(N)ncnc32)[C@@H](O)[C@@H]1O [5′-O-glycyl Ara A] | – | – | – | – | plasma Ara A levels after dosing (in words) [4]: relatively low plasma levels; prodrug absorption / prodrug concentrations in systemic plasma (in words) [4]: limited intestinal absorption of the prodrug; IC50 (vaccinia virus): 15 µM; IC50 (KB cell): > 100 µM
5 | CC(C)[C@H](N)C(=O)O[C@H]1C[C@H](n2cc(F)c(=O)[nH]c2=O)O[C@@H]1CO [3′-O-valyl-Floxuridine] | 3.3 | 980 | 1.35 ± 0.13 | 1.03 | –
6 | Nc1ncnc2c1ncn2[C@@H]1O[C@H](COC(=O)[C@@H](N)CC(=O)O)[C@@H](O)[C@@H]1O [5′-O-L-aspartyl Ara A] | – | – | – | – | hPepT1/Control [5]: 1.27; HeLa/hPEPT1 uptake ([5]; pH 6): 5.0 ± 0.2; IC50 (vaccinia virus): 7 µM; IC50 (KB cell): 60 µM
7 | C[C@H](N)C(=O)NCC(=O)OC[C@H]1O[C@@H](n2cnc3c(N)ncnc32)[C@@H](O)[C@@H]1O [5′-O-L-alagly Ara A] | – | – | – | – | hPepT1/Control [5]: 1.48
8 | NC(CC(=O)O)C(=O)OCC1OC(n2cc(F)c(=O)[nH]c2=O)CC1O (stereo not shown) [5′-O-aspartyl-Floxuridine] | 2.3 | 8300 | – | – | –
9 | NC(CC(=O)O)C(=O)OCC1OC(n2cc(F)c(=O)[nH]c2=O)CC1OC(=O)C(N)CC(=O)O (stereo not shown) [3′,5′-di-O-aspartyl-Floxuridine] | 0.0 | 9550 | – | – | –
10 | CC(C)C(N)C(=O)OC[C@H]1O[C@@H](n2cc(F)c(=O)[nH]c2=O)C[C@@H]1OC(=O)C(N)C(C)C (stereo partly shown) [3′,5′-di-O-valyl-Floxuridine] | 1.7 | 1600 | 2.78 ± 0.37 | 5.18 | –
11 | CC(C)[C@@H](N)C(=O)OC[C@H]1O[C@@H](n2cnc3c(N)ncnc32)[C@@H](O)[C@@H]1O [5′-O-D-valyl Ara A] | – | – | – | – | AUC0-4 hr of Prodrug ([4]; rat plasma, duodenal injection of the named prodrug): 637 ± 74 ng·h/mL; plasma Ara A levels after dosing (in words) [4]: Increased levels of plasma Ara A; prodrug absorption / prodrug concentrations in systemic plasma (in words) [4]: extended and enhanced concentrations of the prodrug in systemic plasma; IC50 (vaccinia virus): 3.5 µM; IC50 (KB cell): > 100 µM
12 | N[C@@H](Cc1ccccc1)C(=O)OC[C@H]1O[C@@H](n2cc(F)c(=O)[nH]c2=O)C[C@@H]1O [5′-O-phenylalanyl-Floxuridine] | 52.8 | 3700 | 1.58 ± 0.20 | 12.34 | –
13 | CC(C)[C@H](N)C(=O)OC[C@H]1O[C@@H](n2cc(F)c(=O)[nH]c2=O)C[C@@H]1O [5′-O-valyl-Floxuridine] | 91.1 | 1170 | 3.42 ± 0.09 | 19.24 | –
14 | N[C@@H](Cc1ccccc1)C(=O)OC[C@H]1O[C@@H](n2cc(F)c(=O)[nH]c2=O)C[C@@H]1OC(=O)[C@@H](N)Cc1ccccc1 [3′,5′-di-O-phenylalanyl-Floxuridine] | 8.9 | 2780 | 2.96 ± 0.13 | 9.53 | –
